Data from ChEMBL document CHEMBL1144683, “Design, synthesis and antiproliferative properties of oligomers with chromophore units linked by amide backbones” (Bioorg Med Chem Lett, 2008).
The source made the active and inactive calls. The calls are words filed in the database; no cut-off is given here.

How the values were obtained:
Jurkat = test: Antiproliferative activity against human Jurkat E6-1 cells by MTT assay; assay type: functional, cell-based
[1] = Antiproliferative activity against mouse NIH-3T3 cells by MTT assay; assay type: cell-based, NIH3T3; settings: for IC50: Mus musculus, NIH3T3; for Activity: mouse, nih3t3
[2] = (§1) Antiproliferative activity against human GLC-4S cells by MTT assay; assay type: functional, cell-based
GLC-4S = test: as §1; assay type: functional, cell-based

| SMILES | IC50 (Jurkat) [µM] | IC50 [1] [µM] | IC50 [2] [µM] | Activity [1] | Activity (Jurkat) | Activity (GLC-4S) |
| --- | --- | --- | --- | --- | --- | --- |
| COC(=O)CNC(=O)c1c2ccccc2nc2ccccc12 | – | – | – | Not Active | inactive | inactive |
| CC(=O)N[C@H]1C[C@@H](C(=O)N[C@H]2C[C@@H](C(=O)N[C@H]3C[C@@H](C(N)=O)N(C(=O)CNC(=O)c4c5ccccc5nc5ccccc45)C3)N(C(=O)CNC(=O)c3c4ccccc4nc4c3[nH]c3ccccc34)C2)N(C(=O)CNC(=O)c2c3ccccc3nc3ccccc23)C1 | 87 | – | 91 | Not Active | – | – |
| COC(=O)CNC(=O)c1c2ccccc2nc2c1[nH]c1ccccc12 | 8 | – | – | Not Active | – | inactive |
| O=C(O)CNC(=O)c1c2ccccc2nc2ccccc12 | – | – | – | Not Active | inactive | inactive |
| CC(=O)N[C@H]1C[C@@H](C(=O)N[C@H]2C[C@@H](C(N)=O)N(C(=O)CNC(=O)c3c4ccccc4nc4c3[nH]c3ccccc34)C2)N(C(=O)CNC(=O)c2c3ccccc3nc3c2[nH]c2ccccc23)C1 | 37 | – | 54 | Not Active | – | – |
| CC(=O)N[C@H]1C[C@@H](C(=O)NC2C[C@@H](C(=O)NC3C[C@@H](C(N)=O)N(C(=O)CNC(=O)c4c5ccccc5nc5ccccc45)C3)N(C(=O)CNC(=O)c3c4ccccc4nc4ccccc34)C2)N(C(=O)CNC(=O)c2c3ccccc3nc3ccccc23)C1 (some centres not stated) | – | – | 134 | Not Active | inactive | – |

The remaining compounds from weak to strong by IC50 (Jurkat), led by results:

| IC50 (Jurkat) [µM] | SMILES | IC50 [1] [µM] | IC50 [2] [µM] | Activity [1] | Activity (Jurkat) | Activity (GLC-4S) |
| --- | --- | --- | --- | --- | --- | --- |
| 149 | CC(=O)N[C@H]1C[C@@H](C(=O)N[C@H]2C[C@@H](C(N)=O)N(C(=O)CNC(=O)c3c4ccccc4nc4ccccc34)C2)N(C(=O)CNC(=O)c2c3ccccc3nc3ccccc23)C1 | – | 135 | Not Active | – | – |
| 129 | CC(=O)N[C@H]1C[C@@H](C(=O)N[C@H]2C[C@@H](C(=O)N[C@H]3C[C@@H](C(N)=O)N(C(=O)CNC(=O)c4c5ccccc5nc5ccccc45)C3)N(C(=O)CNC(=O)c3c4ccccc4nc4ccccc34)C2)N(C(=O)CNC(=O)c2c3ccccc3nc3c2[nH]c2ccccc23)C1 | 357 | 169 | – | – | – |
| 120 | CC(=O)N[C@H]1C[C@@H](C(=O)N[C@H]2C[C@@H](C(N)=O)N(C(=O)CNC(=O)c3c4ccccc4nc4ccccc34)C2)N(C(=O)CNC(=O)c2c3ccccc3nc3c2[nH]c2ccccc23)C1 | – | 165 | Not Active | – | – |
| 112 | CC(=O)N[C@H]1C[C@@H](C(=O)N[C@H]2C[C@@H](C(=O)N[C@H]3C[C@@H](C(N)=O)N(C(=O)CNC(=O)c4c5ccccc5nc5c4[nH]c4ccccc45)C3)N(C(=O)CNC(=O)c3c4ccccc4nc4ccccc34)C2)N(C(=O)CNC(=O)c2c3ccccc3nc3c2[nH]c2ccccc23)C1 | 263 | 82 | – | – | – |
| 103 | CC(=O)N[C@H]1C[C@@H](C(=O)N[C@H]2C[C@@H](C(=O)N[C@H]3C[C@@H](C(N)=O)N(C(=O)CNC(=O)c4c5ccccc5nc5c4[nH]c4ccccc45)C3)N(C(=O)CNC(=O)c3c4ccccc4nc4c3[nH]c3ccccc34)C2)N(C(=O)CNC(=O)c2c3ccccc3nc3ccccc23)C1 | 227 | 151 | – | – | – |
| 92 | CC(=O)N[C@H]1C[C@@H](C(=O)N[C@H]2C[C@@H](C(N)=O)N(C(=O)CNC(=O)c3c4ccccc4nc4c3[nH]c3ccccc34)C2)N(C(=O)CNC(=O)c2c3ccccc3nc3ccccc23)C1 | 376 | 125 | – | – | – |
| 86 | CC(=O)N[C@H]1C[C@@H](C(=O)N[C@H]2C[C@@H](C(=O)N[C@H]3C[C@@H](C(N)=O)N(C(=O)CNC(=O)c4c5ccccc5nc5c4[nH]c4ccccc45)C3)N(C(=O)CNC(=O)c3c4ccccc4nc4ccccc34)C2)N(C(=O)CNC(=O)c2c3ccccc3nc3ccccc23)C1 | 426 | 174 | – | – | – |
| 12 | O=C(O)CNC(=O)c1c2ccccc2nc2c1[nH]c1ccccc12 | – | – | Not Active | – | inactive |
